In patent publication US12213970B2, “Pyridinyl sulfonamide derivatives, pharmaceutical compositions and uses thereof” (Boehringer Ingelheim International GmbH, priority 2018, dated 2025):
Structures can show the parent of a compound that is named as a salt. Where two headings read alike, the source gives them in different places.

Key:
AOC1 = molecular target: T1, AOC1 (Homo sapiens, UniProt P19801); assay: AOC1 biochemical assay (Amplex Red)
T1 construct: purchased R&D Systems 8297-AO-010
T1 sequence (P19801 20-751): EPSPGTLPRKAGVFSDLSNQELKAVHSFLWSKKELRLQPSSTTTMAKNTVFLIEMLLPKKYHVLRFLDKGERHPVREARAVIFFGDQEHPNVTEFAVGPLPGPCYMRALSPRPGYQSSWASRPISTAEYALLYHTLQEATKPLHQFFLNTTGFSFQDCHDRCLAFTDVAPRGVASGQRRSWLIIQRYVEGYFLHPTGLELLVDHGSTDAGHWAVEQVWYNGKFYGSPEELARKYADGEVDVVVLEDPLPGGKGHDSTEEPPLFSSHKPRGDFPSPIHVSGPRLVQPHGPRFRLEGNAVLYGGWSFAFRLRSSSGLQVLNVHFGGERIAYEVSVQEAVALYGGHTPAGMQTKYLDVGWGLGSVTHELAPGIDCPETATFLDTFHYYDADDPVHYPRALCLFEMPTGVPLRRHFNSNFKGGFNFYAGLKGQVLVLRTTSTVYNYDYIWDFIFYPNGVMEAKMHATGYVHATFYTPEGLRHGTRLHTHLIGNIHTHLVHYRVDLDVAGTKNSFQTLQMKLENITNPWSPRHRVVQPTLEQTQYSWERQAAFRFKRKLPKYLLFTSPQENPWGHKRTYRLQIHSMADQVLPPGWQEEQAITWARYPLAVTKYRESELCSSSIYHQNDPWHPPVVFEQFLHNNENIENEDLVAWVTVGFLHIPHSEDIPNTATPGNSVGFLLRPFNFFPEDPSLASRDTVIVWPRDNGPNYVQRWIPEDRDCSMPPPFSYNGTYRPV
Protocol: The Amplex® Red Assay (available from Thermo Fisher Scientific) provides a sensitive method for the detection of H2O2 generated during enzymatic reactions like the amine oxidation catalyzed by AOC1. The assay reagent is a colorless substrate (N-acetyl-3,7-dihydroxyphenoxazine) that reacts in a 1:1 stoichiometry with hydrogen peroxide (H2O2) to produce the fluorescent dye resorufin (7-hydroxyphenoxazin-3-one, excitation/emission maxima=570/585 nm).
An aliquot of 3 μL of the compound dilution is added to a 384 well plate (Optiplate, PS, flat bottom F, black, PERKIN ELMER, #6007270) in a DMSO concentration of 6.6%.
An AOC1 enzyme aliquot (#8297-AO-010, R&D Systems) is thawed on ice, diluted in reaction buffer and added in a volume of 7 μL to the wells to give a final assay concentration of 1 ng/well. After incubation of inhibitor and enzyme for 30 minutes at 37° C., the enzymatic reaction is started with the addition of 10 μL of Amplex® Red reaction mix (final assay concentration: 100 mM sodiumphosphate, 120 μM Amplex® Red reagent (#A22177 Molecular Probes), 1.5 U/mL Horseradish Peroxidase (#P8375 Sigma-Aldrich), 200 μM putrescine (#P7505 Sigma-Alrdich), 0.05% Pluronic F-127 (#P3000MP Sigma-Aldrich), pH 7.4, 37° C.).
After an incubation for 30 minutes at 37° C. the turnover of the substrate is determined directly (or after the addition of an excess of an amine-oxidase inhibitor) with a fluorescence reader (Ex 540 nm/Em 590 nm) like Envision 2104 Multilabel Reader (PERKIN ELMER).

[1] = molecular target: T2, human AOC3 enzyme (recombinant CHO cells) (Homo sapiens, UniProt Q16853); assay: AOC3 biochemical assay (MAO-Glo), human enzyme
T2 construct: expressed in transfected cells; host or cells: CHO cells
T2 sequence (Q16853 1-763): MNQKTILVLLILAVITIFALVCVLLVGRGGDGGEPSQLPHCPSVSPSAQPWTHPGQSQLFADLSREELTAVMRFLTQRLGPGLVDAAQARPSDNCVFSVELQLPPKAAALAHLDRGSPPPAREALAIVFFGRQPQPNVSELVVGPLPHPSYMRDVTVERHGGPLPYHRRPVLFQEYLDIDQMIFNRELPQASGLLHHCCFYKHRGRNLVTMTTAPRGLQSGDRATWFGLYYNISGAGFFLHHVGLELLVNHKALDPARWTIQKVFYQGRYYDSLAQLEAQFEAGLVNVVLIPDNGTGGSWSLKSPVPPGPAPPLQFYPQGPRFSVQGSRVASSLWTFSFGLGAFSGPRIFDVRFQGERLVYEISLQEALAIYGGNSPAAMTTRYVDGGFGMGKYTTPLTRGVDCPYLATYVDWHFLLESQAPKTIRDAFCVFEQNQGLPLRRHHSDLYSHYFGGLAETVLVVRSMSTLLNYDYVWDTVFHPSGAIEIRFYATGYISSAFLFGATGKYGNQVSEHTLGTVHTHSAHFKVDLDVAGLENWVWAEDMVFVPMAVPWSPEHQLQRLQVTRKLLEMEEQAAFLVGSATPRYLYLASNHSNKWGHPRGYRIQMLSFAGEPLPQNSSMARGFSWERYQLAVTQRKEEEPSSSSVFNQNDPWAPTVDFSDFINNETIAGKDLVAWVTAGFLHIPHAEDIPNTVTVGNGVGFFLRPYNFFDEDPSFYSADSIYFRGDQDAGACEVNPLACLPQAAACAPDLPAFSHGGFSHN
From the text: The MAO-Glo™ Assay (commercially available from PROMEGA, #V1402) provides a sensitive method for the measurement of monoamine oxidase (MAO) activity (Valley, M. P. et al., 2006, Anal. Biochem. 359: 238-246) from a variety of tissues, biofluids or recombinant expressed or purified enzymes. As substrate a derivate of the beetle luciferin ((4S)-4,5-dihydro-2-(6-hydroxybenzothiazolyl)-4-thiazole-carboxylic acid) is used, which is oxidized at a primary amine moiety. After a spontaneous elimination and a catalyzed esterase reaction, the turnover of luciferin by the luciferase is recorded as a signal of AOC3 activity.
An aliquot of 3 μL of the compound dilution is added to a 384 well plate (Optiplate, PS, flat bottom, white, PERKIN ELMER, #6007290) with a final DMSO concentration of 6.6%. Recombinant CHO cells, overexpressing the human (1500 cells/well), mouse (1000 cells/well) or rat (500 cells/well) AOC3 enzyme are diluted in reaction buffer and added in a volume of 15 μL to the wells. After incubation for 20 minutes at 37° C., 2 μL of MAO substrate (dissolved in DMSO at 16 mM, adjusted to assay concentration in reaction buffer to a final assay concentration of 20 μM) is added and further incubated for 60 minutes at 37° C. The turnover of the substrate is determined by the addition of 20 μL of the detection-mix which was generated by the addition of reconstitution buffer with esterase (PROMEGA, #V1402) to the luciferin detection reagent (PROMEGA, #V1402). After an incubation period of 20 minutes, the luminescent signal is measured with Envision 2104 Multilabel Reader (PERKIN ELMER).

IC50 (AOC1; comparison table, read-out: IC50 AOC1) [nM]	IC50 ([1]; comparison table, read-out: IC50 AOC3) [nM]	IC50 (AOC1; read-out: AOC1 IC50) [nM]	IC50 ([1]; read-out: AOC3 IC50) [nM]	Compound
963	2			CN(C)S(=O)(=O)c1ccc(OC/C(=C\F)CN)cc1 [Compound 10 of WO 2013/163675, reference compound]
		15300	7	CN1CCN(C2CCN(S(=O)(=O)c3ccc(OC/C(=C\F)CN)nc3)CC2)C1=O [Example 1, 1-{1-[6-((Z)-2-Aminomethyl-3-fluoro-allyloxy)-pyridine-3-sulfonyl]-piperidine-4-yl}-3-methyl-imidazolidin-2-one trifluoroacetate]
		8140	40	CC(C)(O)CNC(=O)[C@H]1CCN(S(=O)(=O)c2ccc(OC/C(=C\F)CN)nc2)C1 [Example 2]
		16400	88	NC/C(=C/F)COc1ccc(S(=O)(=O)N2CCC(C(=O)N3CCOCC3)CC2)cn1 [Example 3]
		3420	23	CN(C)C(=O)[C@H]1CCN(S(=O)(=O)c2ccc(OC/C(=C\F)CN)nc2)C1 [Example 4]
		1220	27	CNC(=O)[C@@H]1[C@@H]2CN(S(=O)(=O)c3ccc(OC/C(=C\F)CN)nc3)C[C@@H]21 [Example 5]
		678		CC(=O)N[C@H]1CCCN(S(=O)(=O)c2ccc(OC/C(=C\F)CN)nc2)C1 [Example 6]
		1560	4	NC/C(=C/F)COc1ccc(S(=O)(=O)N2CCC(C(N)=O)CC2)cn1 [Example 7]
		497	48	CNC(=O)[C@@H]1CCCN1S(=O)(=O)c1ccc(OC/C(=C\F)CN)nc1 [Example 8]
		4550	15	CC(=O)N1CC(C2CCN(S(=O)(=O)c3ccc(OC/C(=C\F)CN)nc3)CC2)C1 [Example 9]
		3180	22	NC/C(=C/F)COc1ccc(S(=O)(=O)N2CCC(C(=O)N3CCC3)CC2)cn1 [Example 10]
		2550		CNC(=O)[C@H]1CCN(S(=O)(=O)c2ccc(OC/C(=C\F)CN)nc2)C1 [Example 11]
		3180	15	CC(=O)NC1CCN(S(=O)(=O)c2ccc(OC/C(=C\F)CN)nc2)C1 (stereo not drawn) [Example 12]
		667	43	NC/C(=C/F)COc1ccc(S(=O)(=O)N2CCC[C@H]2C(N)=O)cn1 [Example 13]
		2150		CNC(=O)[C@@H]1CCN(S(=O)(=O)c2ccc(OC/C(=C\F)CN)nc2)C1 [Example 14]
		4640	9	CCNC(=O)C1CCN(S(=O)(=O)c2ccc(OC/C(=C\F)CN)nc2)CC1 [Example 15]
		441	9	CC1(O)CN(S(=O)(=O)c2ccc(OC/C(=C\F)CN)nc2)C1 [Example 16]
		6250	16	CN(C)C(=O)C1CCN(S(=O)(=O)c2ccc(OC/C(=C\F)CN)nc2)CC1 [Example 17]

IC50 (AOC1; comparison table, read-out: IC50 AOC1) [nM]	IC50 ([1]; comparison table, read-out: IC50 AOC3) [nM]	IC50 (AOC1; read-out: AOC1 IC50) [nM]	IC50 ([1]; read-out: AOC3 IC50) [nM]	Compound
		1220	50	NC/C(=C/F)COc1ccc(S(=O)(=O)N2CCC[C@@H]2C(N)=O)cn1 [Example 18]
		12500	9	CN(C)C(=O)CC1CCN(S(=O)(=O)c2ccc(OC/C(=C\F)CN)nc2)CC1 [Example 19]
		1360	6	NC/C(=C/F)COc1ccc(S(=O)(=O)N2CC(C(N)=O)C2)cn1 [Example 20]
		4090	28	NC/C(=C/F)COc1ccc(S(=O)(=O)N2CC[C@H](C(=O)N3CCOCC3)C2)cn1 [Example 21]
		13700	35	NC/C(=C/F)COc1ccc(S(=O)(=O)N2C[C@H]3C[C@@]3(C(=O)N3CCOCC3)C2)cn1 [Example 22]
		> 50000	28	CCNC(=O)C1(C)CCN(S(=O)(=O)c2ccc(OC/C(=C\F)CN)nc2)CC1 [Example 23]
		1000		CC(=O)N[C@@H]1CCCN(S(=O)(=O)c2ccc(OC/C(=C\F)CN)nc2)C1 [Example 24]
		1320	13	CN(C)C(=O)C1CN(S(=O)(=O)c2ccc(OC/C(=C\F)CN)nc2)C1 [Example 25]
		911	9	NC/C(=C/F)COc1ccc(S(=O)(=O)N2CC(C3CCN(C(=O)C4CC4)CC3)C2)cn1 [Example 26]
		1260	5	CNC(=O)[C@H]1[C@@H]2CN(S(=O)(=O)c3ccc(OC/C(=C\F)CN)nc3)C[C@@H]21 [Example 27]
		3740	13	CC(=O)NCC1CCN(S(=O)(=O)c2ccc(OC/C(=C\F)CN)nc2)CC1 [Example 28]
		1370	8	CNC(=O)[C@@]12C[C@@H]1CN(S(=O)(=O)c1ccc(OC/C(=C\F)CN)nc1)C2 [Example 29]
		8900	15	CCNC(=O)CC1CCN(S(=O)(=O)c2ccc(OC/C(=C\F)CN)nc2)CC1 [Example 30]
		869	4	NC/C(=C/F)COc1ccc(S(=O)(=O)N2CC[C@@H](C(N)=O)C2)cn1 [Example 31]
		5450	4	COC(=O)CC1CCN(S(=O)(=O)c2ccc(OC/C(=C\F)CN)nc2)CC1 [Example 32]
		1140	3	COC1CN(S(=O)(=O)c2ccc(OC/C(=C\F)CN)nc2)C1 [Example 33]
		2400	4	COC(=O)C1CCN(S(=O)(=O)c2ccc(OC/C(=C\F)CN)nc2)CC1 [Example 34]
